# Test results: patent US9862716B2, “TRKA kinase inhibitors, compositions and methods thereof” (Merck Sharp & Dohme Corp., priority 2014, dated 2018)
# Target: T1, human TrkA receptor (Homo sapiens, UniProt P04629)
# T1 construct: host or cells: U2OS cells (PathHunter cell line)
# Experiment: DiscoverX PathHunter TrkA functional assay (NGF-stimulated U2OS cells)
# Type: cell-based
# Details: U2OS cells expressing human TrkA-PK, Shc1-EA and p75NTR; compound 1 h, then NGF at ~80% of maximal response for 3 h; luminescence
# Protocol: TrkA functional activity was measured using a DiscoverX PathHunter assay. In this assay, U2OS cells express the human TrkA receptor as a fusion with the weakly complementing fragment of B-galactosidase, which DiscoverX calls “Prolink (PK)”; additionally, Shc1 is fused with a larger fragment, which is called “Enzyme Acceptor (EA)”. Activation of the TrkA receptor, upon NGF addition, results in the kinase domain being phosphorylated, resulting in subsequent recruitment of Shc1-EA protein. That recruitment results in an active B-galactosidase enzyme that is detected by addition of a chemiluminescent substrate. The human p75^NTR protein was also expressed as a co-receptor for NGF.
# All reagents were purchased from DiscoverX, except for the receptor agonists (NGF, BDNF, NT3) which were purchased from Peprotech. Cells were expanded and frozen into cryovials, and stored in the vapor phase of liquid nitrogen, and thawed immediately before use. Thawed cells were added to a 384-well plate at 7500 cells/well, and allowed to incubate overnight. Compound at various concentrations was added the following morning and allowed to incubate on cells for 1 h. Then, NGF was added at a concentration sufficient to elicit ˜80% of a maximal response and allowed to incubate for 3 h at ambient temperature. DiscoverX PathHunter detection reagent was then added and the plate was further incubated for 1 h in the dark. The plate was then read via luminescence on the Perkin Elmer Envision.
# T1 sequence (P04629 33-796): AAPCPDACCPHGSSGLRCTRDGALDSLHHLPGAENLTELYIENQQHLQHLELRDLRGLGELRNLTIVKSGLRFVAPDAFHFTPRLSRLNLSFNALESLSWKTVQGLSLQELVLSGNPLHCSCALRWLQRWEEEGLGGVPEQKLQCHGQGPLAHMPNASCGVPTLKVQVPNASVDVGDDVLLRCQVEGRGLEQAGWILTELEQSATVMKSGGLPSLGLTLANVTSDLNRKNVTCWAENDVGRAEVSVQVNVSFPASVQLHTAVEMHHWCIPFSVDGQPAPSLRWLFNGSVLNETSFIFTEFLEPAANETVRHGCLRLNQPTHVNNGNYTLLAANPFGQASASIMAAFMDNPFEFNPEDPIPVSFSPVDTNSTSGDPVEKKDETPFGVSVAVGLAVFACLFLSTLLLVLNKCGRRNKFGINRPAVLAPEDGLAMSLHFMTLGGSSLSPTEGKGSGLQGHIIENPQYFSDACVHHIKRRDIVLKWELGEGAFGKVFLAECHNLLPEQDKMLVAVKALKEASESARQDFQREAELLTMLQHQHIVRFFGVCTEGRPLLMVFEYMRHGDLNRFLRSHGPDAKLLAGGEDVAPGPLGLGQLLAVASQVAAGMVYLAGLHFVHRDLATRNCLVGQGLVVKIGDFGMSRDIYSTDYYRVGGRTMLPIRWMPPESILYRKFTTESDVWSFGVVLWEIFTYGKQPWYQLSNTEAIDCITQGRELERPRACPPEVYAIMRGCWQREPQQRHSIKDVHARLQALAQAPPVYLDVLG
row,SMILES,IC50 [nM]
1,"COC1CN(Cc2ccn3c(NC(=O)c4ccc(C(F)(F)F)c(-c5ccn(C)n5)c4)c(-c4ccccc4)nc3c2)C1 [Compound 45, N-{7-[(3-methoxyazetidin-1-yl)methyl]-2-phenylimidazo[1,2-a]pyridin-3-yl}-3-(1-methyl-1H-pyrazol-3-yl)-4-(trifluoromethyl) benzamide]",5
2,"Cc1coc(-c2cc(C(=O)Nc3c(-c4ccccc4)nc4cc(C(C)(C)O)ccn34)ccc2C(F)(F)F)n1 [Compound 46, N-[7-(1-hydroxy-1-methylethyl)-2-phenylimidazo[1,2-a]pyridin-3-yl]-3-(4-methyl-1,3-oxazol-2-yl)-4-(trifluoromethyl) benzamide]",0.44
3,"Cn1ccc(-c2cc(C(=O)Nc3c(-c4ccccc4)nc4ccc(CN5CC(F)C5)cn34)ccc2C(F)(F)F)n1 [Compound 47, N-{6-[(3-fluoroazetidin-1-yl)methyl]-2-phenylimidazo[1,2-a]pyridin-3-yl}-3-(1-methyl-1H-pyrazol-3-yl)-4-(trifluoromethyl) benzamide]",8.8
4,"Cn1ccc(-c2cc(C(=O)Nc3c(-c4ccccc4)nc4cc(C(C)(C)O)ccn34)c(F)cc2C(F)(F)F)n1 [Compound 50, 2-fluoro-N-[7-(1-hydroxy-1-methylethyl)-2-phenylimidazo[1,2-a]pyridin-3-yl]-5-(1-methyl-1H-pyrazol-3-yl)-4-(trifluoromethyl) benzamide]",0.45
5,"CC(C)(O)c1ccn2c(NC(=O)c3cc(-c4ncccn4)c(C(F)(F)F)cc3F)c(-c3ccccc3)nc2c1 [Compound 53, 2-fluoro-N-[7-(1-hydroxy-1-methylethyl)-2-phenylimidazo[1,2-a]pyridin-3-yl]-5-pyrimidin-2-yl-4-(trifluoromethyl) benzamide]",1.1
6,"COc1ccn2c(NC(=O)c3cc(-c4ncccn4)c(C(F)(F)F)cc3F)c(-c3ccccc3)nc2c1 [Compound 59, 2-fluoro-N-(7-methoxy-2-phenylimidazo[1,2-a]pyridin-3-yl)-5-pyrimidin-2-yl-4-(trifluoromethyl) benzamide]",1.7
7,"Cc1ccn(-c2cc(C(=O)Nc3c(-c4ccccc4)nc4cc(C(C)(C)O)ccn34)ccc2C(F)(F)F)n1 [Compound 60, N-[7-(1-hydroxy-1-methylethyl)-2-phenylimidazo[1,2-a]pyridin-3-yl]-3-(3-methyl-1H-pyrazol-1-yl)-4-(trifluoromethyl) benzamide]",14
8,"Cn1ccc(-c2cc(C(=O)Nc3c(-c4ccccc4)nc4cc(C5(O)CC5)ccn34)ccc2C(F)(F)F)n1 [Compound 69, N-[7-(1-hydroxycyclopropyl)-2-phenylimidazo[1,2-a]pyridin-3-yl]-3-(1-methyl-1H-pyrazol-3-yl)-4-(trifluoromethyl) benzamide]",3.4
9,"Cn1ccc(-c2cc(C(=O)Nc3c(-c4ccccc4)nc4cc(C(C)(C)O)ccn34)c(Cl)cc2C(F)(F)F)n1 [Compound 70, 2-chloro-N-[7-(1-hydroxy-1-methylethyl)-2-phenylimidazo[1,2-a]pyridin-3-yl]-5-(1-methyl-1H-pyrazol-3-yl)-4-(trifluoromethyl) benzamide]",1.2
10,"Cc1ccnc(-c2cc(C(=O)Nc3c(-c4ccccc4)nc4cc(C(C)(C)O)ccn34)c(Cl)cc2C(F)(F)F)n1 [Compound 71, 2-chloro-N-[7-(1-hydroxy-1-methylethyl)-2-phenylimidazo[1,2-a]pyridin-3-yl]-5-(4-methylpyrimidin-2-yl)-4-(trifluoromethyl) benzamide]",7.6
11,"Cn1ccc(-c2cc(C(=O)Nc3c(-c4ccccc4)[nH]c4ccccc34)c(F)cc2C(F)(F)F)n1 [Compound 72, 2-fluoro-5-(1-methyl-1H-pyrazol-3-yl)-N-(2-phenyl-1H-indol-3-yl)-4-(trifluoromethyl) benzamide]",4.1
12,"Cc1cc(C(F)(F)F)c(-c2ccn(C)n2)cc1C(=O)Nc1c(-c2ccccc2)nc2cc(C(C)(C)O)ccn12 [Compound 75, N-[7-(1-hydroxy-1-methylethyl)-2-phenylimidazo[1,2-a]pyridin-3-yl]-2-methyl-5-(1-methyl-1H-pyrazol-3-yl)-4-(trifluoromethyl) benzamide]",4.5
13,"O=C(Nc1c(-c2ccccc2)[nH]c2ccccc12)c1cc(-c2ncccn2)c(C(F)(F)F)cc1F [Compound 76, 2-fluoro-N-(2-phenyl-1H-indol-3-yl)-5-pyrimidin-2-yl-4-(trifluoromethyl) benzamide]",8.2
14,"CC(=O)NCc1ccn2c(NC(=O)c3ccc(C(F)(F)F)c(-c4ccn(C)n4)c3)c(-c3ccccc3)nc2c1 [Compound 79, N-{7-[(acetylamino)methyl]-2-phenylimidazo[1,2-a]pyridin-3-yl}-3-(1-methyl-1H-pyrazol-3-yl)-4-(trifluoromethyl) benzamide]",8.2
15,"Cn1ccc(-c2cc(C(=O)Nc3c(-c4ccccc4)nc4cc(CNC(=O)CO)ccn34)ccc2C(F)(F)F)n1 [Compound 80, N-(7-{[(hydroxyacetyl)amino]methyl}-2-phenylimidazo[1,2-a]pyridin-3-yl)-3-(1-methyl-1H-pyrazol-3-yl)-4-(trifluoromethyl) benzamide]",20
16,"CNC(=O)NCc1ccn2c(NC(=O)c3ccc(C(F)(F)F)c(-c4ccn(C)n4)c3)c(-c3ccccc3)nc2c1 [Compound 81, N-(7-{[(methylcarbamoyl)amino]methyl}-2-phenylimidazo[1,2-a]pyridin-3-yl)-3-(1-methyl-1H-pyrazol-3-yl)-4-(trifluoromethyl) benzamide]",15
17,"COC(=O)NCc1ccn2c(NC(=O)c3ccc(C(F)(F)F)c(-c4ccn(C)n4)c3)c(-c3ccccc3)nc2c1 [Compound 83, methyl{[3-({[3-(1-methyl-1H-pyrazol-3-yl)-4-(trifluoromethyl)phenyl]carbonyl}amino)-2-phenylimidazo[1,2-a]pyridin-7-yl]methyl}carbamate]",0.77
18,"Cn1ccc(-c2cc(C(=O)Nc3c(-c4ccccc4)nc4cc(CNS(C)(=O)=O)ccn34)ccc2C(F)(F)F)n1 [Compound 84, 3-(1-methyl-1H-pyrazol-3-yl)-N-(7-{[(methylsulfonyl)amino]methyl}-2-phenylimidazo[1,2-a]pyridin-3-yl)-4-(trifluoromethyl) benzamide]",3.1
19,"O=C(Nc1c(-c2ccccc2)nn2ccccc12)c1cc(-c2ncccn2)c(C(F)(F)F)cc1F [Compound 85, 2-fluoro-N-(2-phenylpyrazolo[1,5-a]pyridin-3-yl)-5-pyrimidin-2-yl-4-(trifluoromethyl) benzamide]",5
20,"N#Cc1ccc2[nH]c(-c3ccccc3)c(NC(=O)c3cc(-c4ncccn4)c(C(F)(F)F)cc3F)c2c1 [Compound 86, N-(5-cyano-2-phenyl-1H-indol-3-yl)-2-fluoro-5-pyrimidin-2-yl-4-(trifluoromethyl) benzamide]",2.6
21,"Cc1csc(-c2ccn3c(NC(=O)c4ccc(C(F)(F)F)c(-c5ccn(C)n5)c4)c(-c4ccccc4)nc3c2)n1 [Compound 87, 3-(1-methyl-1H-pyrazol-3-yl)-N-[7-(4-methyl-1,3-thiazol-2-yl)-2-phenylimidazo[1,2-a]pyridin-3-yl]-4-(trifluoromethyl) benzamide]",0.68
22,"Cn1ccc(-c2cc(C(=O)Nc3c(-c4ccccc4)nc4cc(N5CCOCC5)ccn34)ccc2C(F)(F)F)n1 [Compound 88, 3-(1-methyl-1H-pyrazol-3-yl)-N-(7-morpholin-4-yl-2-phenylimidazo[1,2-a]pyridin-3-yl)-4-(trifluoromethyl) benzamide]",1.2
23,"Cn1ccc(-c2cc(C(=O)Nc3c(-c4ccccc4)nc4cc(N5CCCC5)ccn34)ccc2C(F)(F)F)n1 [Compound 89, 3-(1-methyl-1H-pyrazol-3-yl)-N-(2-phenyl-7-pyrrolidin-1-ylimidazo[1,2-a]pyridin-3-yl)-4-(trifluoromethyl) benzamide]",5
24,"Cn1ccc(-c2cc(C(=O)Nc3c(-c4ccccc4)nc4cc(N5CCNCC5)ccn34)ccc2C(F)(F)F)n1 [Compound 90, 3-(1-methyl-1H-pyrazol-3-yl)-N-(2-phenyl-7-piperazin-1-ylimidazo[1,2-a]pyridin-3-yl)-4-(trifluoromethyl) benzamide]",3.8
25,"O=C(O)c1ccc2[nH]c(-c3ccccc3)c(NC(=O)c3cc(-c4ncccn4)c(C(F)(F)F)cc3F)c2c1 [Compound 91, 3-({[2-fluoro-5-pyrimidin-2-yl-4-(trifluoromethyl)phenyl]carbonyl}amino)-2-phenyl-1H-indole-5-carboxylic acid]",11
26,"NC(=O)c1ccc2[nH]c(-c3ccccc3)c(NC(=O)c3cc(-c4ncccn4)c(C(F)(F)F)cc3F)c2c1 [Compound 92, 3-({[2-fluoro-5-pyrimidin-2-yl-4-(trifluoromethyl)phenyl]carbonyl}amino)-2-phenyl-1H-indole-5-carboxamide]",8.7
27,"Cc1cc(C(F)(F)F)c(-c2ccn(C)n2)cc1C(=O)Nc1c(-c2ccccc2)nc2cc([C@@H](C)O)ccn12 [Compound 93, N-{7-[(1R)-1-hydroxyethyl]-2-phenylimidazo[1,2-a]pyridin-3-yl}-2-methyl-5-(1-methyl-1H-pyrazol-3-yl)-4-(trifluoromethyl) benzamide]",4.7
28,"Cn1ccc(-c2cc(C(=O)Nc3c(-c4ccccc4)nn4ccc(C(C)(C)O)cc34)ccc2C(F)(F)F)n1 [Compound 96, N-[5-(1-hydroxy-1-methylethyl)-2-phenylpyrazolo[1,5-a]pyridin-3-yl]-3-(1-methyl-1H-pyrazol-3-yl)-4-(trifluoromethyl) benzamide]",6.7
29,"Cn1ccc(-c2cc(C(=O)Nc3c(-c4ccccc4)nc4cc(CCO)ccn34)ccc2C(F)(F)F)n1 [Compound 99, N-[7-(2-hydroxyethyl)-2-phenylimidazo[1,2-a]pyridin-3-yl]-3-(1-methyl-1H-pyrazol-3-yl)-4-(trifluoromethyl) benzamide]",2.1
30,"Cn1ccc(-c2cc(C(=O)Nc3c(-c4ccccc4)nc4cc(CCN)ccn34)ccc2C(F)(F)F)n1 [Compound 100, N-[7-(2-aminoethyl)-2-phenylimidazo[1,2-a]pyridin-3-yl]-3-(1-methyl-1H-pyrazol-3-yl)-4-(trifluoromethyl) benzamide]",13
